Experimental data as given in paper PMC5630639 (Scientific Reports, 2017).

Columns and labels:
[1] = test system: three cancer cell lines (MGC-803, MCF-7, A549); assay: CCK-8 proliferation assay, three cancer cell lines together; assay type: cell-based; conditions: Homo sapiens, 48 h, read-out: IC50 values toward three cancer cell lines
Protocol: (§1) All synthesized β-lactam-azide derivatives were evaluated for their antiproliferative activity against three cancer cell lines (MGC-803, MCF-7, A549) using CCK-8 proliferation assay. The well-known anticancer drug CA-4P was used as a control[36],[37].
(§2) MGC-803 cell line was obtained from the Chinese Academy of Sciences (Shanghai, China). MCF-7 and A549 were from the National Cell Center, China. MGC-803 cells were cultured in DMEM culture medium (DMEM, Biological Industries, Kibbutz Beit Haemek, Israel). A549 and MCF-7 cells were cultured in 1640 medium (1640, Biological Industries, Kibbutz Beit Haemek, Israel). All medium were supplemented with 10% fetal bovine serum, 100 U/ml penicillin (North China Pharmaceutical group Co.), and 100 µg/ml streptomycin (North China Pharmaceutical group Co.). All cells were cultured at 37 °C in a humidified incubator containing 5% CO2.
Synthesized analogues used in the study were dissolved in 100% cell culture grade DMSO and the final concentration of DMSO as <0.1% for testing on cancer cell lines. […] The absorbance was measured using a microplate reader (BioTek Instrument, Inc. Vermont, USA) with a test wavelength of 450 nm. The absorbance levels were corrected against untreated control absorbance values. […]

A549 cells = assay: CCK-8 proliferation assay, A549; assay type: cell-based, human; conditions: Homo sapiens, A549; 48 h, CCK-8, mean ± SD
Protocol: as §1, §2
(§3) Synthesized analogues used in the study were dissolved in 100% cell culture grade DMSO and the final concentration of DMSO as <0.1% for testing on cancer cell lines. Cytotoxicity assays were performed on the human gastric carcinoma cell line MGC-803, the human mammary carcinoma cell line MCF-7, the human lung carcinoma cell line A549. Cells (3500–5000/well) were seeded into 96-well plates in 100 µL of culture medium. The cells were treated in triplicate with a gradient concentration of testing compounds and incubated at 37 °C, 5% CO2 for 48 h. For all cell lines, CCK-8 assay was performed to measure cytotoxic effects. The absorbance was measured using a microplate reader (BioTek Instrument, Inc. Vermont, USA) with a test wavelength of 450 nm. The absorbance levels were corrected against untreated control absorbance values. All experiments were performed in triplicate and SPSS17.0 was used for data analysis to obtain IC50 values.

MGC-803 cells = assay: CCK-8 proliferation assay, MGC-803; assay type: cell-based, human; conditions: Homo sapiens, MGC-803; 48 h, CCK-8, mean ± SD
Protocol: as §1, §2, §3

MCF-7 cells = assay: CCK-8 proliferation assay, MCF-7; assay type: cell-based, human; conditions: Homo sapiens, MCF7; 48 h, CCK-8, mean ± SD
Protocol: as §1, §2, §3

bladder cancer cells = test system: bladder cancer cells; set-up: method as in PMID 18281555; conditions: cited from earlier work
tubulin [2] = test system: tubulin; set-up: method as in PMID 11058036; conditions: read-out: anti-tubulin activity IC50; cited from earlier work
tubulin [3] = test system: tubulin; set-up: method as in PMID 15588080; conditions: cited from earlier work

SMILES	IC50 (A549 cells) [µM]	IC50 (MGC-803 cells) [µM]	IC50 (MCF-7 cells) [µM]	melting point [°C]	also measured
COc1cc(N2C(=O)[C@H](c3cccs3)[C@H]2c2ccc(N=[N+]=[N-])cc2)cc(OC)c1OC (relative stereo) [Compound 26, trans-4-(4-azidophenyl)-3-(thiophen-2-yl)-1-(3,4,5-trimethoxyphenyl)azetidin-2-one]	4.2 ± 0.186	0.251 ± 0.053	0.154 ± 0.019		IC50 [1]: 0.154 to 4.2 µM
COc1cc(N2C(=O)[C@@H](c3ccccc3)[C@@H]2c2ccc(-n3cc(COc4cccc([N+](=O)[O-])c4)nn3)cc2)cc(OC)c1OC (relative stereo) [Compound 29, trans-4-(4-(4-((3-nitrophenoxy)methyl)-1H-1,2,3-triazol-1-yl)phenyl)-3-phenyl-1-(3,4,5-trimethoxyphenyl)azetidin-2-one]	> 20	> 20	> 20	142 to 145	
COc1ccc([C@@H]2C(=O)N(c3cc(OC)c(OC)c(OC)c3)[C@H]2c2ccc(-n3cc(-c4ccccc4)nn3)cc2)cc1 (relative stereo) [Compound 30, trans-3-(4-methoxyphenyl)-4-(4-(4-phenyl-1H-1,2,3-triazol-1-yl)phenyl)-1-(3,4,5-trimethoxyphenyl)azetidin-2-one]	> 20	> 20	> 20	90 to 91	
COc1cccc(/C=C/C(=O)N=[N+]=[N-])c1OC [Compound 1]					in vitro and in vivo antitumor effect of romidepsin on bladder cancer cells (bladder cancer cells): enhanced
COc1cc(/C=C\c2cc(OC)c(OC)c(OC)c2)ccc1N=[N+]=[N-] [Compound 2]					IC50 (tubulin [2]): 5.2 µM
CC(=O)OC1C(=O)C2(C)C(O)CC3OCC3(OC(C)=O)C2C(OC(=O)c2ccccc2)C2(O)CC(OC(=O)C(O)C(NC(=O)c3ccccc3)c3ccc(N=[N+]=[N-])cc3)C(C)=C1C2(C)C (stereo not drawn) [Compound 3, 3′-(4-Azidophenyl)-3′-dephenylpaclitaxel]					activity in tubulin assembly and cytotoxicity assays (tubulin [3]): as active as paclitaxel
